For four molecules, Km and IC50 results are on record in article PMC8580884, “A Novel System for Evaluating the Inhibition Effect of Drugs on Cytochrome P450 Enzymes in vitro Based on Human-Induced Hepatocytes (hiHeps)” (Frontiers in Pharmacology, 2021).

The target in one series is T1, CYP2C9 (Homo sapiens, UniProt P11712).
T1 construct: native enzyme in human liver microsomes (IC50) or human-induced hepatocytes hiHeps (Km); read by diclofenac to 4'-hydroxydiclofenac
Put plainly: intact hiHeps cells, metabolite by UPLC-MS/MS, Lineweaver-Burk. Type of series: cell-based. As to conditions: hepatocytes.

Series [1] concerns the target T2, CYP3A4 (Homo sapiens, UniProt P08684).
T2 construct: native enzyme in human liver microsomes (IC50) or human-induced hepatocytes hiHeps (Km); read by midazolam to 1'-hydroxymidazolam (CYP3A5 may contribute)
The series is described as above. Format: cell-based.

For series [2], the target named is T2, CYP3A4. Put plainly: human liver microsomes, cocktail probe assay, UPLC-MS/MS. Type of series: biochemical. Conditions: 10 μM midazolam in five-probe cocktail, NADPH, MgCl2, alamethicin, 37°C, 60 min; read-out: IC50 (μM) / HLM. An excerpt: human liver microsomes, cocktail probe assay, UPLC-MS/MS on CYP3A4
(Liver microsomes are vesicles of endoplasmic reticulum, rich in cytochrome P450 enzymes.)

Series [3] has as its target T3, CYP2B6 (Homo sapiens, UniProt P20813).
T3 construct: native enzyme in human liver microsomes (IC50) or human-induced hepatocytes hiHeps (Km); read by bupropion to hydroxybupropion
T3 sequence (P20813 1-491): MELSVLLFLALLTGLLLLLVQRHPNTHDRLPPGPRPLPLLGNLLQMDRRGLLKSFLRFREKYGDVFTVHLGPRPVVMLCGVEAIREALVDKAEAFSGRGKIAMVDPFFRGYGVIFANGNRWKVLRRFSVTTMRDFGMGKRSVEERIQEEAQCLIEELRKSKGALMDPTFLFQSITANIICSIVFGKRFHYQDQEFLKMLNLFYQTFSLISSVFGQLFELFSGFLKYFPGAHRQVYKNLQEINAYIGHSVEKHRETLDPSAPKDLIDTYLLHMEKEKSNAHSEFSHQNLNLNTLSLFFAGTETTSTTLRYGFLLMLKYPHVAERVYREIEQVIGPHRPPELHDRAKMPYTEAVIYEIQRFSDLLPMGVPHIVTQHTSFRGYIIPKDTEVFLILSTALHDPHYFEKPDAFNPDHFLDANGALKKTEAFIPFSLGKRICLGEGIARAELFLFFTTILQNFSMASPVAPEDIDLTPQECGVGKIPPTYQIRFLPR
The description is as above. Format: biochemical. As to conditions: read-out: IC50 (μM) / HLM. An excerpt:
human liver microsomes, cocktail probe assay, UPLC-MS/MS on CYP2B6

In the next series the target is T4, CYP1A2 (Homo sapiens, UniProt P05177).
T4 construct: native enzyme in pooled human liver microsomes (IC50) or human-induced hepatocytes hiHeps (Km); read by phenacetin to acetaminophen
T4 sequence (P05177 2-516): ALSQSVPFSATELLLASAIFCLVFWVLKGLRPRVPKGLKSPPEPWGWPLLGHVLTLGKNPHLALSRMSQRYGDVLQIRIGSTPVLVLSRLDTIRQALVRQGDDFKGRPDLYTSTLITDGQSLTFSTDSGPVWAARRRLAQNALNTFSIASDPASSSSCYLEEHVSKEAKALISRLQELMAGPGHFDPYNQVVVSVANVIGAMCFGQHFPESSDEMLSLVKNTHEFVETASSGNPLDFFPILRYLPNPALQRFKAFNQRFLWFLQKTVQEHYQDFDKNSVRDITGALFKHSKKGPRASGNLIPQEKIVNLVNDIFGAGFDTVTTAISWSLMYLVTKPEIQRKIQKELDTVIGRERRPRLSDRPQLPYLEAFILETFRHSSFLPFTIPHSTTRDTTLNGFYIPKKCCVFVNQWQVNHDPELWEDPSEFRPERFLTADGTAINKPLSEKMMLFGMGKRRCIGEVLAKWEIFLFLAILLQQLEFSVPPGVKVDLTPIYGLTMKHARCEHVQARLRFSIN
Described as above. Format: biochemical. As to conditions: read-out: IC50 (μM) / HLM. From the text:
human liver microsomes, cocktail probe assay, UPLC-MS/MS on CYP1A2

Another series has as its target T5, CYP2C19 (Homo sapiens, UniProt P33261).
T5 construct: native enzyme in human liver microsomes (IC50) or human-induced hepatocytes hiHeps (Km)
The series is described as above. Format: biochemical. Conditions: read-out: IC50 (μM) / HLM. An excerpt: human liver microsomes, cocktail probe assay, UPLC-MS/MS on CYP2C19

Series [4] has as its target T3, CYP2B6. The experiment in a line: intact hiHeps cells, metabolite by UPLC-MS/MS, Lineweaver-Burk. Type of series: cell-based. As to conditions: hepatocytes.

Each structure is given as a SMILES string.

T2 sequence (P08684 2-503): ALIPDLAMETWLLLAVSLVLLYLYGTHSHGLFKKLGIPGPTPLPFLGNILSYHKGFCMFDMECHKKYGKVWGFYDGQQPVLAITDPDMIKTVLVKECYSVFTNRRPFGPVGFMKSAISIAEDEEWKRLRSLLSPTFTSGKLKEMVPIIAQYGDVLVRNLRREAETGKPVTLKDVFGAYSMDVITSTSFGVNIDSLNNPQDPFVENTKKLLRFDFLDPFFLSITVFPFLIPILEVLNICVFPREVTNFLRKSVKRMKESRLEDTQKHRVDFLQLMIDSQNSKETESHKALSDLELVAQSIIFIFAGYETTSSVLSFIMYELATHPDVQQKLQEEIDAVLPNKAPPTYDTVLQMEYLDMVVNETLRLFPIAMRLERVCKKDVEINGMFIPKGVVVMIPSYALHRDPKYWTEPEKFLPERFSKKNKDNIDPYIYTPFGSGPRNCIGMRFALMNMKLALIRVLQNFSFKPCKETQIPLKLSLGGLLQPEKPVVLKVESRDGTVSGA
T5 sequence (P33261 whole entry): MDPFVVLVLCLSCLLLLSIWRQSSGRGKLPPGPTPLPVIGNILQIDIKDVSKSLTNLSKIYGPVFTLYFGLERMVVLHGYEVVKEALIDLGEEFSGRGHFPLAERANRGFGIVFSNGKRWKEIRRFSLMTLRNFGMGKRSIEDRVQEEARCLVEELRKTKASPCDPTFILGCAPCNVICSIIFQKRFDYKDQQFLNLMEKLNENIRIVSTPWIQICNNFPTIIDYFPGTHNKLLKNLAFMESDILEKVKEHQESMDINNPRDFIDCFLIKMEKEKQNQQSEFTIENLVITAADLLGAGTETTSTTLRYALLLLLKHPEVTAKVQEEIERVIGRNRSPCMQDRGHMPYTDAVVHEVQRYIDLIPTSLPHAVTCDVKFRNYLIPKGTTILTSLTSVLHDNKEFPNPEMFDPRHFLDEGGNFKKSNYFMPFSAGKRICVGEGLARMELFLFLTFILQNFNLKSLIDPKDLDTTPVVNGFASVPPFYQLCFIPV
T1 sequence (P11712 whole entry): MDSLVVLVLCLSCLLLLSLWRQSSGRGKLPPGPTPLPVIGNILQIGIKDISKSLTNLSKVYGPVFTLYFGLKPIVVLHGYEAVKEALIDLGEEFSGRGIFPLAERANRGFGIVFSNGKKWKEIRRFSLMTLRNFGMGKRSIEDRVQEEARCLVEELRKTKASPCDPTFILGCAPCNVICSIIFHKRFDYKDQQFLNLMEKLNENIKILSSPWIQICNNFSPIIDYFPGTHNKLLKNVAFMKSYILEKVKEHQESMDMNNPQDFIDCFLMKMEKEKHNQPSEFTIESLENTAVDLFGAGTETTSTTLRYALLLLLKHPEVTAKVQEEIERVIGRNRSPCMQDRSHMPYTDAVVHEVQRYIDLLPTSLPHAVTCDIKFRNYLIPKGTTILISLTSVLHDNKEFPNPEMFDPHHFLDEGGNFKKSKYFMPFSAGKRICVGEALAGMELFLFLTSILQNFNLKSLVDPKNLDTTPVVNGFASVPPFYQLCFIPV

For orientation: Km means the substrate concentration at which the rate is half of its maximum. For the molecule `O=C(O)Cc1ccccc1Nc1c(Cl)cccc1Cl` [diclofenac], at CYP2C9, the Km turned out to be 41.9 µM.
With `Cc1ncc2n1-c1ccc(Cl)cc1C(c1ccccc1F)=NC2` [midazolam], the Km on CYP3A4 [1] stood at 13.9 µM.
Regarding `COc1cc(/C=C/C(=O)CC(=O)/C=C/c2ccc(O)c(OC)c2)ccc1O` [curcumin], the IC50 at CYP3A4 [2] was 21 ± 1.27 µM; on CYP2B6 [3] it was 30 ± 2.09 µM; at CYP1A2 it was 50.1 ± 2.71 µM; on CYP2C19, over 500 µM.
Regarding `CC(NC(C)(C)C)C(=O)c1cccc(Cl)c1` (stereo not shown) [bupropion], the Michaelis-Menten constant (Km) at CYP2B6 [4] came to 151 µM.
